Laboratory results as given in ChEMBL document CHEMBL1145498, “A systematic interaction map of validated kinase inhibitors with Ser/Thr kinases” (Proc Natl Acad Sci U S A, 2007).

Legend:
[1] = target: T1, Myotonin-protein kinase (Homo sapiens) (UniProt Q09013)
T1 sequence (whole entry): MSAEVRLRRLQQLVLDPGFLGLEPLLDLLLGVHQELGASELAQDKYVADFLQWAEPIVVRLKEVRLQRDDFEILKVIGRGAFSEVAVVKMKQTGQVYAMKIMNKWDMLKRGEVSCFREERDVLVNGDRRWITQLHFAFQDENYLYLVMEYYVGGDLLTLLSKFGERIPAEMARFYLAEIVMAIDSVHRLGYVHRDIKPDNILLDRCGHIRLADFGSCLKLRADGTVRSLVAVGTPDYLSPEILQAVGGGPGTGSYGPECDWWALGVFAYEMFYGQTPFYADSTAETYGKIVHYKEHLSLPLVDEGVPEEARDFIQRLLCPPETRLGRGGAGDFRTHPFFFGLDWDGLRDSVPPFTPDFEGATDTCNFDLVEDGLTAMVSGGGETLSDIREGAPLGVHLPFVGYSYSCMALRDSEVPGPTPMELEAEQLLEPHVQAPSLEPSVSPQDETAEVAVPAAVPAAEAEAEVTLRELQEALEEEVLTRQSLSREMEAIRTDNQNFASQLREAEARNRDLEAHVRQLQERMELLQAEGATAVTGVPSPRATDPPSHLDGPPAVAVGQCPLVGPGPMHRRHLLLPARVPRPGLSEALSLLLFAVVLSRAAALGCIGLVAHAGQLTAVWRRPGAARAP

[2] = target: Serine/threonine-protein kinase OSR1 (Homo sapiens) (UniProt O95747)
[3] = target: Dual specificity protein kinase CLK2 (Homo sapiens) (UniProt P49760)
Sequence of Dual specificity protein kinase CLK2 (Homo sapiens) (P49760 whole entry, looked up): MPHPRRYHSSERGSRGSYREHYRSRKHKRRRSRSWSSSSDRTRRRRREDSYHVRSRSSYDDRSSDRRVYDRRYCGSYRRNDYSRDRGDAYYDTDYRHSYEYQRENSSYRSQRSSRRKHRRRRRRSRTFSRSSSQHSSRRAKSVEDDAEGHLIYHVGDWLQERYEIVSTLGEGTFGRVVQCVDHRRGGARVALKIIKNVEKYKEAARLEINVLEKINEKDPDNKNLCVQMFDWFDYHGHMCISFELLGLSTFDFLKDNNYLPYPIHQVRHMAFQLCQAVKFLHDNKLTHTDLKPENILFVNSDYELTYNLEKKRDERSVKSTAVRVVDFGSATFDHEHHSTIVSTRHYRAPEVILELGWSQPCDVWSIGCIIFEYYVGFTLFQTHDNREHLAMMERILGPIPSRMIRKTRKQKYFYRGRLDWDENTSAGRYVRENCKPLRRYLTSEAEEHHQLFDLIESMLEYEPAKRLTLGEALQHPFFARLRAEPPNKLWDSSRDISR

[4] = target: Serine/threonine-protein kinase pim-2 (Homo sapiens, UniProt Q9P1W9)
Sequence of Serine/threonine-protein kinase pim-2 (Q9P1W9 whole entry, looked up): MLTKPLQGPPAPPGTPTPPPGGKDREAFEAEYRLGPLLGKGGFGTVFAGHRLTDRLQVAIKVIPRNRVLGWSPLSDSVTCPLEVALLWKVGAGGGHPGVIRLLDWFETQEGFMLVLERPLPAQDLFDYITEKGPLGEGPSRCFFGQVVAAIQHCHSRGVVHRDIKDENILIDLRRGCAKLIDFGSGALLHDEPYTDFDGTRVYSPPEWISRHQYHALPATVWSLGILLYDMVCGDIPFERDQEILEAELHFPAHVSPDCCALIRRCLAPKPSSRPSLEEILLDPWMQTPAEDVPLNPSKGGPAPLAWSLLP

[5] = target: Serine/threonine-protein kinase pim-1 (Homo sapiens) (UniProt P11309)
Sequence of Serine/threonine-protein kinase pim-1 (Homo sapiens) (P11309 whole entry, looked up): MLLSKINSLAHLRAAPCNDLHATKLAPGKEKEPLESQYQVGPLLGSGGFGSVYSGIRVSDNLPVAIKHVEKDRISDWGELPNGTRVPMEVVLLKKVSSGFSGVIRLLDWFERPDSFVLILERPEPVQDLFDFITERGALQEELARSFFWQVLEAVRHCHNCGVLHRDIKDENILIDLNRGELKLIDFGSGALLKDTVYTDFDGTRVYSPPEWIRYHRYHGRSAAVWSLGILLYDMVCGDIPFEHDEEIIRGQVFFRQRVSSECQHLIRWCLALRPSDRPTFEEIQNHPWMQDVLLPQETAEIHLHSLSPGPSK

[6] = target: Serine/threonine-protein kinase 26 (Homo sapiens) (UniProt Q9P289)
Sequence of Serine/threonine-protein kinase 26 (Homo sapiens) (Q9P289 2-416 limits assumed): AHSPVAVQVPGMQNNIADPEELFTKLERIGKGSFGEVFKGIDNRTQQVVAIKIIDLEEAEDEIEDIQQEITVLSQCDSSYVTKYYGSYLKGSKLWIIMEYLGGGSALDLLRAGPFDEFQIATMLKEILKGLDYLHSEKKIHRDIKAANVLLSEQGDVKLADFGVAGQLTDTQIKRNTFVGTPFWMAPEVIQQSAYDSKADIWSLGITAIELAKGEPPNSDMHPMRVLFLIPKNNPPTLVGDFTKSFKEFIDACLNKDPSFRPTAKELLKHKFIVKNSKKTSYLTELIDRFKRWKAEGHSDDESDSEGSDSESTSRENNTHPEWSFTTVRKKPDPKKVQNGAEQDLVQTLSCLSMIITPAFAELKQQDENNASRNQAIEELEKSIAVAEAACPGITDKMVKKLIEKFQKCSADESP

[7] = target: Dual specificity mitogen-activated protein kinase kinase 2 (Homo sapiens, UniProt P36507)
Sequence of Dual specificity mitogen-activated protein kinase kinase 2 (P36507 whole entry): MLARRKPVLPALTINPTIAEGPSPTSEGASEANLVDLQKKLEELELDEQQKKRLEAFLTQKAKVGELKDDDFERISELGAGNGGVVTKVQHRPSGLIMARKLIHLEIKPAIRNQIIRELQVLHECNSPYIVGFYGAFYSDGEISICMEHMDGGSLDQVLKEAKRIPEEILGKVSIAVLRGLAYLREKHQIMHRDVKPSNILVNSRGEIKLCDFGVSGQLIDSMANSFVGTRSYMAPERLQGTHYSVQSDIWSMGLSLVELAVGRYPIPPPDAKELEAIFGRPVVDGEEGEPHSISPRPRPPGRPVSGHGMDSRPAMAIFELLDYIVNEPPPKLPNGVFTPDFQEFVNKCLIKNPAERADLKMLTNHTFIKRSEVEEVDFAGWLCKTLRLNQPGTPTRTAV

[8] = target: Calcium/calmodulin-dependent protein kinase type II subunit gamma (Homo sapiens) (UniProt Q13555)
Sequence of Calcium/calmodulin-dependent protein kinase type II subunit gamma (Homo sapiens) (Q13555 whole entry): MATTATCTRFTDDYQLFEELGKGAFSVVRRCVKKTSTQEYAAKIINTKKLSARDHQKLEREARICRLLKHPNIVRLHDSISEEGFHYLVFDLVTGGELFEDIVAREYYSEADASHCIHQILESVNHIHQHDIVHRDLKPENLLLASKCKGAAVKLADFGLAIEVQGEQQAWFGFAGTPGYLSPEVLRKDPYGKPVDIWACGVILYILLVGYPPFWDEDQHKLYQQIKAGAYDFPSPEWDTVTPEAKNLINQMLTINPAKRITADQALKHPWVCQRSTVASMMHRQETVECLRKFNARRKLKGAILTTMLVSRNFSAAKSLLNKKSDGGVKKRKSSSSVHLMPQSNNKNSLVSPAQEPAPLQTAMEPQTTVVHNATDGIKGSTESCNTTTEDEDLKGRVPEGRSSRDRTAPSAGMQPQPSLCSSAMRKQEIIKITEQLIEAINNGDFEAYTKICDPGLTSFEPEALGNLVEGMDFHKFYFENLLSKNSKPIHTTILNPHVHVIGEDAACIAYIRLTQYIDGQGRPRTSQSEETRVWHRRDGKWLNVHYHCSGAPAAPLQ

[9] = target: Ribosomal protein S6 kinase alpha-3 (Homo sapiens) (UniProt P51812)
Sequence of Ribosomal protein S6 kinase alpha-3 (Homo sapiens) (P51812 whole entry): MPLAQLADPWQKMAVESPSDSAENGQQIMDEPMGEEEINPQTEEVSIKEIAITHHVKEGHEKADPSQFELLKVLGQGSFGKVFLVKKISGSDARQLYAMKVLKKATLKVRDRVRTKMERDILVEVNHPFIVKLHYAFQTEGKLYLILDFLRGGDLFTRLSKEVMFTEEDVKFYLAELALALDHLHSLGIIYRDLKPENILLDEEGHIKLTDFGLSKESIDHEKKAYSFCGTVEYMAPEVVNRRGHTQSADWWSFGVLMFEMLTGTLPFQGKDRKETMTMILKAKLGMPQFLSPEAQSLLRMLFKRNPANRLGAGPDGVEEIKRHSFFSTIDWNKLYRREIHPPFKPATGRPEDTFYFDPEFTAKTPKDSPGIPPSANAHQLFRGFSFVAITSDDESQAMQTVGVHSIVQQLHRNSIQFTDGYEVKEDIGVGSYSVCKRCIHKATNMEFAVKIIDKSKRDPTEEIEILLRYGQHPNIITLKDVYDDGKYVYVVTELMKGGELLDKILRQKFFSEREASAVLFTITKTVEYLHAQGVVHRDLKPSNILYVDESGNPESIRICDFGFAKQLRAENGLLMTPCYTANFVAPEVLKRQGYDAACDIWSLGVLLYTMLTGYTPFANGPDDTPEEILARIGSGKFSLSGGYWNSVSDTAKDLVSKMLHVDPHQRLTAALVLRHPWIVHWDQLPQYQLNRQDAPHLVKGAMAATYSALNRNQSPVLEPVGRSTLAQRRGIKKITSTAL

[10] = target: Serine/threonine-protein kinase pim-3 (Homo sapiens) (UniProt Q86V86)
[11] = target: Serine/threonine-protein kinase 25 (Homo sapiens) (UniProt O00506)
Sequence of Serine/threonine-protein kinase 25 (Homo sapiens) (O00506 whole entry, looked up): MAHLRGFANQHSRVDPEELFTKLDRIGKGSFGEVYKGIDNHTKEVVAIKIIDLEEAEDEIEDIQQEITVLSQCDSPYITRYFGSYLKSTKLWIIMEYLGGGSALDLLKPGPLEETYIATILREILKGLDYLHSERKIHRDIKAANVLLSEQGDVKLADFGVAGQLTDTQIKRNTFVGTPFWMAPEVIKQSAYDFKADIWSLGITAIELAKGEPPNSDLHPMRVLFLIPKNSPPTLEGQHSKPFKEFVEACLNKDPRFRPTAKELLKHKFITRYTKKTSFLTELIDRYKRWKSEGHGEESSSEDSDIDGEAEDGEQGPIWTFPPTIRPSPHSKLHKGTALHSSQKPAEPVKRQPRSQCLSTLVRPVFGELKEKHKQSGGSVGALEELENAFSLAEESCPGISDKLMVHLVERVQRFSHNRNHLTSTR

[12] = target: Serine/threonine-protein kinase 26 (Homo sapiens) (UniProt Q9P289); remark: listed apart in the source
[13] = target: Death-associated protein kinase 3 (Homo sapiens) (UniProt O43293)
[14] = target: Mitogen-activated protein kinase 11 (Homo sapiens, UniProt Q15759)
[15] = target: Cyclin-dependent kinase 2 (Homo sapiens, UniProt P24941)
[16] = target: T2, Serine/threonine-protein kinase 17A (Homo sapiens) (UniProt Q9UEE5)
T2 sequence (whole entry): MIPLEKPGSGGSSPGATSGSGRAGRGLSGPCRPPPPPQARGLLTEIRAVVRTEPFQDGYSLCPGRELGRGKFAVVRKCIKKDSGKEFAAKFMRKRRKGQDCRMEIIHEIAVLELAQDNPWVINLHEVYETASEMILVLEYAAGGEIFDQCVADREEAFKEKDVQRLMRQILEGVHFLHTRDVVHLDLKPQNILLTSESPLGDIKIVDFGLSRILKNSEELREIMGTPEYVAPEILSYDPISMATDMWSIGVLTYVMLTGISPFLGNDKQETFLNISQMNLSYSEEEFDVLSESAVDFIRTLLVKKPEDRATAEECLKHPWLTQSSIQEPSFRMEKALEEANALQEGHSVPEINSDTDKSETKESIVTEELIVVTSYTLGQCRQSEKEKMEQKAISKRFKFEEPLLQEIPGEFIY

[17] = target: T3, Lymphokine-activated killer T-cell-originated protein kinase (Homo sapiens) (UniProt Q96KB5)
T3 sequence (whole entry): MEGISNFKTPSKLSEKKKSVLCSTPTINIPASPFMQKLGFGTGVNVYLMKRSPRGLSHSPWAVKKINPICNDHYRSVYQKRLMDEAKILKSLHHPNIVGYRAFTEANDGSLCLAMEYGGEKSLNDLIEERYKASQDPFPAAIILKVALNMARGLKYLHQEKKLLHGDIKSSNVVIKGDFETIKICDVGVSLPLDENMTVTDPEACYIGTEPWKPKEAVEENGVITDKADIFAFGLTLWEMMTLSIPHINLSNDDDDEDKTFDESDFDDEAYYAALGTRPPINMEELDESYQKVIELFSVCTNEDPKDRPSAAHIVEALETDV

[18] = target: Calcium/calmodulin-dependent protein kinase type 1D (Homo sapiens) (UniProt Q8IU85)
Sequence of Calcium/calmodulin-dependent protein kinase type 1D (Homo sapiens) (Q8IU85 whole entry, looked up): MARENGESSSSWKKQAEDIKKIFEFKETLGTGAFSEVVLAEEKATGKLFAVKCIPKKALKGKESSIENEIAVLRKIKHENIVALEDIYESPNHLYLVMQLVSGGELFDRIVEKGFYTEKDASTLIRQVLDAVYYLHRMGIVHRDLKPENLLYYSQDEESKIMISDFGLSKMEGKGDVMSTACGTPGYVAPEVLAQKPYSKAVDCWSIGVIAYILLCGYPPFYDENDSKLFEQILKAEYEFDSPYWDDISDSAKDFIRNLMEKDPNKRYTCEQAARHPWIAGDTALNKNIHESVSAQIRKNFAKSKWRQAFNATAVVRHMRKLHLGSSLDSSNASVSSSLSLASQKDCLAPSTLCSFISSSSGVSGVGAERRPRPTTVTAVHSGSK

[19] = target: Serine/threonine-protein kinase PAK 5 (Homo sapiens) (UniProt Q9P286)
[20] = target: Calcium/calmodulin-dependent protein kinase type II subunit delta (Homo sapiens) (UniProt Q13557)
Sequence of Calcium/calmodulin-dependent protein kinase type II subunit delta (Homo sapiens) (Q13557 whole entry): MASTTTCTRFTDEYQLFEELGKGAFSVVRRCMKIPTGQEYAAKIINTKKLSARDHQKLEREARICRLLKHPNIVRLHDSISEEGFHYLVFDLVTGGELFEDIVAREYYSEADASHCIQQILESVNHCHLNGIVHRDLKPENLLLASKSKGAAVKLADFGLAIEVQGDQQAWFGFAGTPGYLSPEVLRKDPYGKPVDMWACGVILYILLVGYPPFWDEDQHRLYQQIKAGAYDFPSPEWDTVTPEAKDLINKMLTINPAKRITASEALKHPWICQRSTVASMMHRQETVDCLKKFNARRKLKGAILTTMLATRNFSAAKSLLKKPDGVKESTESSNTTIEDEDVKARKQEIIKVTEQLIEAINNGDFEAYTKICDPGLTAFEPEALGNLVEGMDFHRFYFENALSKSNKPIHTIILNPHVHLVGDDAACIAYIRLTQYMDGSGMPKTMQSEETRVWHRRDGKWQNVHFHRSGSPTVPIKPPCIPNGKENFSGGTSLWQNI

[21] = target: T4, Serine/threonine-protein kinase VRK1 (Homo sapiens) (UniProt Q99986)
T4 sequence (whole entry): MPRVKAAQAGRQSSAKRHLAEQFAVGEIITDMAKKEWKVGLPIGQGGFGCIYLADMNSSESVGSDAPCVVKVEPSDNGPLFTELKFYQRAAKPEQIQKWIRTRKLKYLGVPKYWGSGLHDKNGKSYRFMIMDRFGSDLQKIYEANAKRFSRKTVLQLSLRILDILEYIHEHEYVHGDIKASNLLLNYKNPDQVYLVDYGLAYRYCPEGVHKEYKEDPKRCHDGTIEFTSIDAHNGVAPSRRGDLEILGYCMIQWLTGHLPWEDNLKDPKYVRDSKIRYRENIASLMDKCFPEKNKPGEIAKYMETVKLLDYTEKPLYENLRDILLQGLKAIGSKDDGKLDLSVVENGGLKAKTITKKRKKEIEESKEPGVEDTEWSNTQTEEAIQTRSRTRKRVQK

ΔTm [1]	ΔTm [2]	ΔTm [3]	ΔTm [4]	ΔTm [5]	ΔTm [6]	ΔTm [7]	ΔTm [8]	ΔTm [9]	ΔTm [10]	ΔTm [11]	ΔTm [12]	ΔTm [14]	ΔTm [15]	ΔTm [16]	ΔTm [18]	ΔTm [19]	ΔTm [20]	Compound	ΔTm [13]	ΔTm [17]	other results
6.9 °C	-0.1 °C	5.6 °C	5.6 °C	8.3 °C	-0.2 °C	0.6 °C	3.7 °C	1.9 °C	6.7 °C	2.3 °C	2.1 °C	0.5 °C	3 °C	4.6 °C	0.3 °C	1.4 °C	-0.5 °C	Cn1cc(C2=C(c3cn(CCCN)c4ccccc34)C(=O)NC2=O)c2ccccc21	2.5 °C	-0.8 °C	ΔTm [21]: 0.9 °C
7 °C	5.6 °C	8.9 °C	0.6 °C	0.4 °C	8.3 °C	5.1 °C	4.2 °C	9.6 °C	1.9 °C	12 °C	11.1 °C	1.9 °C	15.9 °C	12.6 °C	3.1 °C	5.5 °C	0.7 °C	Nc1nc(Nc2ccc(S(N)(=O)=O)cc2)nn1C(=S)Nc1c(F)cccc1F	3 °C	-0.2 °C	ΔTm [21]: 1.9 °C
